In patent US20100310591A1 (priority 2009, published 2010):
Where two headings read alike, the source gives them in different places. Non-standard residues stand in square brackets, D forms with d. Ava = NCCCCC(=O)O

Tested on: TPc9.1 T hybridoma with CH27 antigen presenting cells
Test: T hybridoma response assay (APC + T hybridoma, HT-2 [3H]TdR uptake readout)
Format: cell-based, murine
Settings: for EC50: serial 1:4 dilutions from 3 μM, 24 hr stimulation
Method: Biological Activities of Hybrid Peptides [00103) The biological activities of the series of peptides listed in Table I were determined with the T hybridoma response assay. A T cell hybridoma which is specific to the hornworm moth cytochrome C epitope IAYLKQATAK (SEQ ID NO: 8) was stimulated with that antigenic peptide or with members of the series of hybrids of the antigenic peptide and the core Ii-Key sequence listed in Table I. The hybrids were joined with spacers of various lengths. The spacers contained either amino acids in the natural sequence of the Ii protein, or methylene (—CH2—) groups of 5-amino-n-valeric acid (ava; 5-aminopentanoic acid). Cultures of an antigen presenting cell and T cell hybridoma were incubated with serial 1:4 dilutions of the antigenic peptide, from 3 μM. Response was determined by measuring tritiated thymidine uptake by an HT-2 culture to which supernatants of the antigenic stimulation culture (24 hr stimulation period) had been transferred (see, Table 2). The endpoint for half maximal response to Hybrid 1, the antigenic peptide, was about 20 nM. The endpoint for half maximal stimulation with Hybrids 5 and 2 was about 50 pM.
For this assay the following components were added at the same time of the primary culture: (a) The hybrid peptide containing the antigenic epitope (Table I); (b) mitomycin C-treated, MHC class II-positive antigen presenting cells (APC) with the MHC class II allele required for binding of the specific antigenic peptide and its presentation to the antigenic peptide-specific T cell hybridoma; (c) MHC class II allele-restricted T cell hybridoma specific for the antigenic peptide and the MHC class II allele restricting its presentation. At the end of the incubation of this primary culture, an aliquot of its supernatant was transferred into a second culture well for incubation with an interleukin-dependent lymphoblastoid cell line. The degree of stimulation of that second indicator cell by the interleukins which had been released from the activated T cell hybridoma in the primary culture was measured by quantitating tritiated thymidine deoxyribose {[^3H]TdR} uptake into the DNA of the HT-2 indicator cells of that second culture.
The hybrids between Ii-Key core sequence LRMK (SEQ ID NO: 3) and PGCC95-104, pigeon cytochrome C 95-104, IAYLKQATAK (SEQ ID NO: 8) are presented by E^k. The peptides were dissolved in phosphate-buffered saline (PBS; 0.01 M sodium phosphate buffer, pH 7.2, 0.1 M NaCl). The solutions were sterilized by filtration. The TPc9.1 T hybridoma is specific for pigeon cytochrome C 81-104 peptide presented on the murine class II MHC allele E^k. The CH27 B cell lymphoma line which expresses H-2^k alleles was used as the antigen presenting cell.
Antigenic peptide-specific T cell activation was measured by the following procedure. Mitomycin C-treated CH27 cells (A^kE^k) APC were generated by incubating 5.×10^6 cells/mL for 20 min at 37° C. with 0.025 mg/mL of mitomycin C (Sigma) in Dulbecco's Modified Eagle's Medium (DMEM)/10 mM N-2 (hydroxyethylpiperazine-N′[2-ethanesulfonic acid] (HEPES), followed by two washes with four volumes of DMEM-5% fetal calf serum (FCS), 10 mM HEPES. T cell hybridomas were irradiated 2200 rads before each assay.
For the primary culture assay, 5×10^4 mitomycin C-treated APC, 5×10^4 T hybridoma cells and serial 1:4 dilutions from 3 uM of the peptides containing antigenic epitopes were cultured at pH 7.2-7.4, in complete DMEM-5% FCS, 10 mM HEPES, 1× nonessential amino acids (Sigma), 1 mM sodium pyruvate, 2 mM L-glutamine. 100 U/mL penicillin G, 100 μg/mL streptomycin sulfate, 5×10^−5 M 2-mercaptoethanol (2-ME). Wells containing only T hybridoma cells (T)+APC were included to monitor for background T cell activation; and wells containing T+APC+antigenic peptide were included to monitor for non-specific T hybridoma activation by each AE101 series peptide. […]

## Ac-LRMK (SEQ ID NO: 3)-5-aminopentanoyl-5-aminopentanoyl-IAYLKQATAK (SEQ ID NO: 8)-NH2 (Ac-LRMK[Ava][Ava]IAYLKQATAK-NH2; SMILES CC[C@H](C)[C@H](NC(=O)CCCCNC(=O)CCCCNC(=O)[C@H](CCCCN)NC(=O)[C@H](CCSC)NC(=O)[C@H](CCCNC(=N)N)NC(=O)[C@H](CC(C)C)NC(C)=O)C(=O)N[C@@H](C)C(=O)N[C@@H](Cc1ccc(O)cc1)C(=O)N[C@@H](CC(C)C)C(=O)N[C@@H](CCCCN)C(=O)N[C@@H](CCC(N)=O)C(=O)N[C@@H](C)C(=O)N[C@H](C(=O)N[C@@H](C)C(=O)N[C@@H](CCCCN)C(N)=O)[C@@H](C)O) [Hybrid 3]
  activity of hybrid (in words): comparable to those with the natural sequence of Ii protein
Conc. 0.01 nM
  immunological response to the antigenic epitope (T cell proliferative response): 0.6 thousands of counts per minute
Conc. 0.05 nM
  immunological response to the antigenic epitope (T cell proliferative response): 5.3 thousands of counts per minute
Conc. 0.18 nM
  immunological response to the antigenic epitope (T cell proliferative response): 21.6 thousands of counts per minute
Conc. 0.73 nM
  immunological response to the antigenic epitope (T cell proliferative response): 22.3 thousands of counts per minute
Conc. 3 nM
  immunological response to the antigenic epitope (T cell proliferative response): 27.9 thousands of counts per minute
Conc. 12 nM
  immunological response to the antigenic epitope (T cell proliferative response): 29.5 thousands of counts per minute
Conc. 47 nM
  immunological response to the antigenic epitope (T cell proliferative response): 26.2 thousands of counts per minute
Conc. 188 nM
  immunological response to the antigenic epitope (T cell proliferative response): 26.2 thousands of counts per minute
Conc. 750 nM
  immunological response to the antigenic epitope (T cell proliferative response): 31.7 thousands of counts per minute
Conc. 3000 nM
  immunological response to the antigenic epitope (T cell proliferative response): 31.9 thousands of counts per minute

## Ac-LRMKLPKSIAYLKQATAK-NH2 (SEQ ID NO: 9) [Hybrid 4]
Conc. 0.01 nM
  immunological response to the antigenic epitope (T cell proliferative response): 2.5 thousands of counts per minute
Conc. 0.05 nM
  immunological response to the antigenic epitope (T cell proliferative response): 5.8 thousands of counts per minute
Conc. 0.18 nM
  immunological response to the antigenic epitope (T cell proliferative response): 9.1 thousands of counts per minute
Conc. 0.73 nM
  immunological response to the antigenic epitope (T cell proliferative response): 19.2 thousands of counts per minute
Conc. 3 nM
  immunological response to the antigenic epitope (T cell proliferative response): 19.0 thousands of counts per minute
Conc. 12 nM
  immunological response to the antigenic epitope (T cell proliferative response): 23.1 thousands of counts per minute
Conc. 47 nM
  immunological response to the antigenic epitope (T cell proliferative response): 19.5 thousands of counts per minute
Conc. 188 nM
  immunological response to the antigenic epitope (T cell proliferative response): 20.8 thousands of counts per minute
Conc. 750 nM
  immunological response to the antigenic epitope (T cell proliferative response): 23.3 thousands of counts per minute
Conc. 3000 nM
  immunological response to the antigenic epitope (T cell proliferative response): 25.2 thousands of counts per minute

## Ac-LRMK (SEQ ID NO: 3)-5-aminopentanoyl-IAYLKQATAK (SEQ ID NO: 8)-NH2 (Ac-LRMK[Ava]IAYLKQATAK-NH2; SMILES CC[C@H](C)[C@H](NC(=O)CCCCNC(=O)[C@H](CCCCN)NC(=O)[C@H](CCSC)NC(=O)[C@H](CCCNC(=N)N)NC(=O)[C@H](CC(C)C)NC(C)=O)C(=O)N[C@@H](C)C(=O)N[C@@H](Cc1ccc(O)cc1)C(=O)N[C@@H](CC(C)C)C(=O)N[C@@H](CCCCN)C(=O)N[C@@H](CCC(N)=O)C(=O)N[C@@H](C)C(=O)N[C@H](C(=O)N[C@@H](C)C(=O)N[C@@H](CCCCN)C(N)=O)[C@@H](C)O) [Hybrid 2]
  activity of hybrid (in words): comparable to those with the natural sequence of Ii protein
Conc. 0.01 nM
  immunological response to the antigenic epitope (T cell proliferative response): 3.4 thousands of counts per minute
Conc. 0.05 nM
  immunological response to the antigenic epitope (T cell proliferative response): 19.8 thousands of counts per minute
Conc. 0.18 nM
  immunological response to the antigenic epitope (T cell proliferative response): 31.2 thousands of counts per minute
Conc. 0.73 nM
  immunological response to the antigenic epitope (T cell proliferative response): 38.8 thousands of counts per minute
Conc. 3 nM
  immunological response to the antigenic epitope (T cell proliferative response): 30.1 thousands of counts per minute
Conc. 12 nM
  immunological response to the antigenic epitope (T cell proliferative response): 21.9 thousands of counts per minute
Conc. 47 nM
  immunological response to the antigenic epitope (T cell proliferative response): 20.8 thousands of counts per minute
Conc. 188 nM
  immunological response to the antigenic epitope (T cell proliferative response): 27.2 thousands of counts per minute
Conc. 750 nM
  immunological response to the antigenic epitope (T cell proliferative response): 23.9 thousands of counts per minute
Conc. 3000 nM
  immunological response to the antigenic epitope (T cell proliferative response): 25.1 thousands of counts per minute
read-out: endpoint for half maximal stimulation
  EC50: ~0.05 nM

## IAYLKQATAK [Hybrid 1, Ac-IAYLKQATAK—NH2 (SEQ ID NO: 8), reference compound]
Conc. 0.01 nM
  immunological response to the antigenic epitope (T cell proliferative response): 0 thousands of counts per minute
Conc. 0.05 nM
  immunological response to the antigenic epitope (T cell proliferative response): 0 thousands of counts per minute
Conc. 0.18 nM
  immunological response to the antigenic epitope (T cell proliferative response): 0 thousands of counts per minute
Conc. 0.73 nM
  immunological response to the antigenic epitope (T cell proliferative response): 4 thousands of counts per minute
Conc. 3 nM
  immunological response to the antigenic epitope (T cell proliferative response): 0.4 thousands of counts per minute
Conc. 12 nM
  immunological response to the antigenic epitope (T cell proliferative response): 10.9 thousands of counts per minute
Conc. 47 nM
  immunological response to the antigenic epitope (T cell proliferative response): 29.5 thousands of counts per minute
Conc. 188 nM
  immunological response to the antigenic epitope (T cell proliferative response): 32.4 thousands of counts per minute
Conc. 750 nM
  immunological response to the antigenic epitope (T cell proliferative response): 27.8 thousands of counts per minute
Conc. 3000 nM
  immunological response to the antigenic epitope (T cell proliferative response): 25.2 thousands of counts per minute
read-out: endpoint for half maximal response
  EC50: ~20 nM

## Ac-LRMKLPKSAKPVSKIAYLKQATAK-NH2 (SEQ ID NO: 11) [Hybrid 6]
  activity of hybrid (in words): sub-optimal activity
Conc. 0.01 nM
  immunological response to the antigenic epitope (T cell proliferative response): 2.9 thousands of counts per minute
Conc. 0.05 nM
  immunological response to the antigenic epitope (T cell proliferative response): 2.4 thousands of counts per minute
Conc. 0.18 nM
  immunological response to the antigenic epitope (T cell proliferative response): 11.9 thousands of counts per minute
Conc. 0.73 nM
  immunological response to the antigenic epitope (T cell proliferative response): 28.7 thousands of counts per minute
Conc. 3 nM
  immunological response to the antigenic epitope (T cell proliferative response): 31.4 thousands of counts per minute
Conc. 12 nM
  immunological response to the antigenic epitope (T cell proliferative response): 39.2 thousands of counts per minute
Conc. 47 nM
  immunological response to the antigenic epitope (T cell proliferative response): 25.3 thousands of counts per minute
Conc. 188 nM
  immunological response to the antigenic epitope (T cell proliferative response): 26.9 thousands of counts per minute
Conc. 750 nM
  immunological response to the antigenic epitope (T cell proliferative response): 23.4 thousands of counts per minute
Conc. 3000 nM
  immunological response to the antigenic epitope (T cell proliferative response): 21.5 thousands of counts per minute
